Legend:
Klebsiella pneumoniae [1] = experiment: Antibacterial activity against Klebsiella pneumoniae assessed as concentration required to obtain a zone of inhibition of 20 mm after 18 to 24 hr by disk diffusion method; assay type: functional
[2] = Antibacterial activity against Hofmanni bacterium assessed as zone of inhibition after 18 to 24 hr by disc diffusion method relative to gatifloxacin
[3] = Antibacterial activity against Hofmanni bacterium assessed as concentration required to obtain a zone of inhibition of 10 mm after 18 to 24 hr by disc diffusion method
Blood [4] = experiment: Antioxidant activity in Homo sapiens (human) whole blood assessed as inhibition of ROS production after 30 min by luminol-enhanced chemiluminescence assay; assay type: functional, tissue-based; details: 0.5 h
Trichophyton rubrum [5] = experiment: Antifungal activity against Trichophyton rubrum assessed as concentration required to obtain a zone of inhibition of 40 mm after 7 days by disk diffusion method; assay type: functional
Escherichia coli [6] = experiment: Antibacterial activity against Escherichia coli assessed as zone of inhibition at 5 to 40 ug/ml after 18 to 24 hr by disk diffusion method relative to gatifloxacin; assay type: functional
Proteus mirabilis [7] = experiment: Antibacterial activity against Proteus mirabilis assessed as concentration required to obtain a zone of inhibition of 20 mm after 18 to 24 hr by disc diffusion method; assay type: functional
Fusarium solani = experiment: Antifungal activity against Fusarium solani assessed as concentration required to obtain a zone of inhibition of 40 mm after 7 days by disk diffusion method; assay type: functional
Pseudomonas aeruginosa [8] = experiment: Antibacterial activity against Pseudomonas aeruginosa assessed as concentration required to obtain a zone of inhibition of 5 mm after 18 to 24 hr by disk diffusion method; assay type: functional
Saccharomyces cerevisiae = experiment: Antifungal activity against Saccharomyces cerevisiae assessed as zone of inhibition at 5 to 40 ug/ml after 7 days by disk diffusion method relative to gatifloxacin; assay type: functional
T-cell [9] = experiment: Anti-inflammatory activity in Homo sapiens (human) T lymphocytes assessed as inhibition of PHA-induced [3H] thymidine uptake at 50 ug/ml incubated for 72 hr prior to [3H]thymidine addition measured after 18 hr by liquid scintillation method; assay type: functional
Proteus mirabilis [10] = experiment: Antibacterial activity against Proteus mirabilis assessed as concentration required to obtain a zone of inhibition of 5 mm after 18 to 24 hr by disc diffusion method; assay type: functional
Bacillus subtilis [11] = experiment: Antibacterial activity against Bacillus subtilis assessed as zone of inhibition at 5 to 40 ug/ml after 18 to 24 hr by disk diffusion method relative to gatifloxacin; assay type: functional
[12] = Antibacterial activity against Hofmanni bacterium assessed as concentration required to obtain a zone of inhibition of 5 mm after 18 to 24 hr by disc diffusion method
Candida albicans [13] = experiment: Antifungal activity against Candida albicans assessed as zone of inhibition at 5 to 40 ug/ml after 7 days by disk diffusion method relative to gatifloxacin; assay type: functional
Staphylococcus aureus = experiment: Antibacterial activity against methicillin-resistant Staphylococcus aureus assessed as concentration required to obtain a zone of inhibition of 5 mm after 18 to 24 hr by disk diffusion method; assay type: functional
Klebsiella pneumoniae [14] = experiment: Antibacterial activity against Klebsiella pneumoniae assessed as concentration required to obtain a zone of inhibition of 5 mm after 18 to 24 hr by disk diffusion method; assay type: functional
Blood [15] = experiment: Antioxidant activity in Homo sapiens (human) whole blood assessed as inhibition of ROS production at 50 ug/ml after 30 min by luminol-enhanced chemiluminescence assay; assay type: functional; details: 0.5 h
Shigella flexneri = experiment: Antibacterial activity against Shigella flexneri assessed as concentration required to obtain a zone of inhibition of 20 mm after 18 to 24 hr by disk diffusion method; assay type: functional
Citrobacter [16] = experiment: Antibacterial activity against Citrobacter assessed as zone of inhibition at 5 to 40 ug/ml after 18 to 24 hr by disk diffusion method relative to gatifloxacin; assay type: functional
Trichophyton rubrum [17] = experiment: Antifungal activity against Trichophyton rubrum assessed as zone of inhibition at 5 to 40 ug/ml after 7 days by disk diffusion method relative to gatifloxacin; assay type: functional
Blood [18] = experiment: Antioxidant activity in Homo sapiens (human) whole blood assessed as inhibition of ROS production at 100 ug/ml after 30 min by luminol-enhanced chemiluminescence assay; assay type: functional; details: 0.5 h
Pseudomonas aeruginosa [19] = experiment: Antibacterial activity against Pseudomonas aeruginosa assessed as concentration required to obtain a zone of inhibition of 10 mm after 18 to 24 hr by disk diffusion method; assay type: functional
Bacillus subtilis [20] = experiment: Antibacterial activity against Bacillus subtilis assessed as concentration required to obtain a zone of inhibition of 10 mm after 18 to 24 hr by disk diffusion method; assay type: functional
T-cell [21] = experiment: Anti-inflammatory activity in Homo sapiens (human) T lymphocytes assessed as inhibition of PHA-induced [3H] thymidine uptake at 3.12 ug/ml incubated for 72 hr prior to [3H]thymidine addition measured after 18 hr by liquid scintillation method; assay type: functional
Escherichia coli [22] = experiment: Antibacterial activity against Escherichia coli assessed as concentration required to obtain a zone of inhibition of 5 mm after 18 to 24 hr by disk diffusion method; assay type: functional
[23] = Antibacterial activity against Hofmanni bacterium assessed as concentration required to obtain a zone of inhibition of 20 mm after 18 to 24 hr by disc diffusion method
Pseudomonas aeruginosa [24] = experiment: Antibacterial activity against Pseudomonas aeruginosa assessed as zone of inhibition at 5 to 40 ug/ml after 18 to 24 hr by disk diffusion method relative to gatifloxacin; assay type: functional
Escherichia coli [25] = experiment: Antibacterial activity against Escherichia coli assessed as concentration required to obtain a zone of inhibition of 20 mm after 18 to 24 hr by disk diffusion method; assay type: functional
Citrobacter [26] = experiment: Antibacterial activity against Citrobacter assessed as concentration required to obtain a zone of inhibition of 5 mm after 18 to 24 hr by disk diffusion method; assay type: functional
Bacillus subtilis [27] = experiment: Antibacterial activity against Bacillus subtilis assessed as concentration required to obtain a zone of inhibition of 20 mm after 18 to 24 hr by disk diffusion method; assay type: functional
Pseudomonas aeruginosa [28] = experiment: Antibacterial activity against Pseudomonas aeruginosa assessed as concentration required to obtain a zone of inhibition of 20 mm after 18 to 24 hr by disk diffusion method; assay type: functional
Bacillus subtilis [29] = experiment: Antibacterial activity against Bacillus subtilis assessed as concentration required to obtain a zone of inhibition of 5 mm after 18 to 24 hr by disk diffusion method; assay type: functional
Escherichia coli [30] = experiment: Antibacterial activity against Escherichia coli assessed as concentration required to obtain a zone of inhibition of 10 mm after 18 to 24 hr by disk diffusion method; assay type: functional
Proteus mirabilis [31] = experiment: Antibacterial activity against Proteus mirabilis assessed as concentration required to obtain a zone of inhibition of 10 mm after 18 to 24 hr by disc diffusion method; assay type: functional
Candida albicans [32] = experiment: Antifungal activity against Candida albicans assessed as concentration required to obtain a zone of inhibition of 40 mm after 7 days by disk diffusion method; assay type: functional
Klebsiella pneumoniae [33] = experiment: Antibacterial activity against Klebsiella pneumoniae assessed as concentration required to obtain a zone of inhibition of 10 mm after 18 to 24 hr by disk diffusion method; assay type: functional

| SMILES | Activity (Klebsiella pneumoniae [1]) [µg/mL] | inhibition zone (IZ) [2] [%] | Activity [3] [µg/mL] | IC50 (Blood [4]) [mg/L] | Activity (Trichophyton rubrum [5]) [µg/mL] | inhibition zone (IZ) (Escherichia coli [6]) [%] | Activity (Proteus mirabilis [7]) [µg/mL] | Activity (Fusarium solani) [µg/mL] | Activity (Pseudomonas aeruginosa [8]) [µg/mL] | inhibition zone (IZ) (Saccharomyces cerevisiae) [%] | inhibition at 50 µg/mL (T-cell [9]) [%] | Activity (Proteus mirabilis [10]) [µg/mL] | inhibition zone (IZ) (Bacillus subtilis [11]) [%] | Activity [12] [µg/mL] | inhibition zone (IZ) (Candida albicans [13]) [%] | Activity (Staphylococcus aureus) [µg/mL] | Activity (Klebsiella pneumoniae [14]) [µg/mL] | inhibition at 50 µg/mL (Blood [15]) [%] | Activity (Shigella flexneri) [µg/mL] | inhibition zone (IZ) (Citrobacter [16]) [%] | further results |
| --- | --- | --- | --- | --- | --- | --- | --- | --- | --- | --- | --- | --- | --- | --- | --- | --- | --- | --- | --- | --- | --- |
| CCCCCCCC(=O)N1CCN(c2c(F)cc3c(=O)c(C(=O)O)cn(C4CC4)c3c2OC)CC1C.O (stereo unspecified) | 18 | 88 | 11 | < 12.5 | 17 | 90.78 | 14 | 19 | 8 | 0 | -6.9 | 11 | 80.2 | 7 | 218 | 7 | 13 | 89.2 | 20 | 51.5 | inhibition zone (IZ) (Trichophyton rubrum [17]): 127%; inhibition at 100 µg/mL (Blood [18]): 96.1%; Activity (Pseudomonas aeruginosa [19]): 10 µg/mL; Activity (Bacillus subtilis [20]): 11 µg/mL; inhibition at 3.12 µg/mL (T-cell [21]): -59.5%; Activity (Escherichia coli [22]): 8 µg/mL; Activity [23]: 14 µg/mL; inhibition zone (IZ) (Pseudomonas aeruginosa [24]): 78.57%; Activity (Escherichia coli [25]): 14 µg/mL; Activity (Citrobacter [26]): 8 µg/mL; Activity (Bacillus subtilis [27]): 13 µg/mL; Activity (Pseudomonas aeruginosa [28]): 11 µg/mL; Activity (Bacillus subtilis [29]): 10 µg/mL; Activity (Escherichia coli [30]): 10 µg/mL; Activity (Proteus mirabilis [31]): 12 µg/mL; Activity (Candida albicans [32]): 21 µg/mL; Activity (Klebsiella pneumoniae [33]): 14 µg/mL |
| COc1c(N2CCN(C(=O)c3ccccc3)C(C)C2)c(F)cc2c(=O)c(C(=O)O)cn(C3CC3)c12.O (stereo unspecified) | 21 | 86 | 12 | > 100 | 27 | 117.3 | 12 | 19 | 10 | 0 | -6.9 | 9 | 104 | 6 | 141 | 9 | 8 | 11.1 | 14 | 47.6 | inhibition zone (IZ) (Trichophyton rubrum [17]): 185%; inhibition at 100 µg/mL (Blood [18]): 15%; Activity (Pseudomonas aeruginosa [19]): 12 µg/mL; Activity (Bacillus subtilis [20]): 15 µg/mL; inhibition at 3.12 µg/mL (T-cell [21]): -59.5%; Activity (Escherichia coli [22]): 8 µg/mL; Activity [23]: 14 µg/mL; inhibition zone (IZ) (Pseudomonas aeruginosa [24]): 117.9%; Activity (Escherichia coli [25]): 19 µg/mL; Activity (Citrobacter [26]): 8 µg/mL; Activity (Bacillus subtilis [27]): 18 µg/mL; Activity (Pseudomonas aeruginosa [28]): 18 µg/mL; Activity (Bacillus subtilis [29]): 12 µg/mL; Activity (Escherichia coli [30]): 16 µg/mL; Activity (Proteus mirabilis [31]): 11 µg/mL; Activity (Candida albicans [32]): 14 µg/mL; Activity (Klebsiella pneumoniae [33]): 14 µg/mL |
| COc1c(N2CCN(C(C)=O)C(C)C2)c(F)cc2c(=O)c(C(=O)O)cn(C3CC3)c12.O (stereo unspecified) | 25 | 99 | 12 | > 100 | 34 | 134.8 | 12 | 15 | 11 | 0 | -52.3 | 9 | 100 | 8 | 206 | 14 | 16 | -17.4 | 24 | 98.9 | inhibition zone (IZ) (Trichophyton rubrum [17]): 239%; inhibition at 100 µg/mL (Blood [18]): -15.1%; Activity (Pseudomonas aeruginosa [19]): 17 µg/mL; Activity (Bacillus subtilis [20]): 15 µg/mL; inhibition at 3.12 µg/mL (T-cell [21]): -23.4%; Activity (Escherichia coli [22]): 10 µg/mL; Activity [23]: 16 µg/mL; inhibition zone (IZ) (Pseudomonas aeruginosa [24]): 150.1%; Activity (Escherichia coli [25]): 22 µg/mL; Activity (Citrobacter [26]): 17 µg/mL; Activity (Bacillus subtilis [27]): 17 µg/mL; Activity (Pseudomonas aeruginosa [28]): 24 µg/mL; Activity (Bacillus subtilis [29]): 11 µg/mL; Activity (Escherichia coli [30]): 17 µg/mL; Activity (Proteus mirabilis [31]): 10 µg/mL; Activity (Candida albicans [32]): 19 µg/mL; Activity (Klebsiella pneumoniae [33]): 23 µg/mL |

— ChEMBL document CHEMBL3044830, “Synthesis, characterization, antibacterial, antifungal, and immunomodulating activities of gatifloxacin derivatives” (Med Chem Res, 2010)
